Data as given in US9862716B2, “TRKA kinase inhibitors, compositions and methods thereof” (Merck Sharp & Dohme Corp., priority 2014, dated 2018).
pIC50: −log10 of the molar value.

biological target: T1, human TrkA receptor (Homo sapiens, UniProt P04629); assay: DiscoverX PathHunter TrkA functional assay (NGF-stimulated U2OS cells); assay type: cell-based; details: U2OS cells expressing human TrkA-PK, Shc1-EA and p75NTR; compound 1 h, then NGF at ~80% of maximal response for 3 h; luminescence
T1 construct: host or cells: U2OS cells (PathHunter cell line)
T1 sequence (P04629 33-796): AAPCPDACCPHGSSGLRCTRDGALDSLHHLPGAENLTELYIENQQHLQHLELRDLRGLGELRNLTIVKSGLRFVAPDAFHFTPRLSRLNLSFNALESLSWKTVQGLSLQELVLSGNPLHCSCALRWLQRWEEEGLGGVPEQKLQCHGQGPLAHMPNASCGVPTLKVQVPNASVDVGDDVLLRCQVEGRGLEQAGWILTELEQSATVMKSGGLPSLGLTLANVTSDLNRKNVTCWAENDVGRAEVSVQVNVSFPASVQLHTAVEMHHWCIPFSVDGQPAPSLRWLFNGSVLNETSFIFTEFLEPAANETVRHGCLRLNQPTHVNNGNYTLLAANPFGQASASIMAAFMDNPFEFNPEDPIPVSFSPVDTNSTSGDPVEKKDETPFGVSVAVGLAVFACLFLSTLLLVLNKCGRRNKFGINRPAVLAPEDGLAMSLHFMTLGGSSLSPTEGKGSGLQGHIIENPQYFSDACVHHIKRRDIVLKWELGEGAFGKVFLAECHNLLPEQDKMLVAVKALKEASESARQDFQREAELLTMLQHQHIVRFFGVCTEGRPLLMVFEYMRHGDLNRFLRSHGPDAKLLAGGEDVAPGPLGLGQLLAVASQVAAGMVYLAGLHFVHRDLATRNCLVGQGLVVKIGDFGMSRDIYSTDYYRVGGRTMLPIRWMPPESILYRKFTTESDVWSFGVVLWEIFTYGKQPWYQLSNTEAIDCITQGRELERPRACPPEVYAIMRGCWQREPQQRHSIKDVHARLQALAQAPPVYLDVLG

pIC50 | Structure (SMILES)
8.00 | CC(=O)NCCc1ccn2c(NC(=O)c3ccc(C(F)(F)F)c(-c4ccn(C)n4)c3)c(-c3ccccc3)nc2c1 [Compound 101, N-{7-[2-(acetylamino)ethyl]-2-phenylimidazo[1,2-a]pyridin-3-yl}-3-(1-methyl-1H-pyrazol-3-yl)-4-(trifluoromethyl) benzamide]
8.09 | CC(=O)NCc1ccn2c(NC(=O)c3ccc(C(F)(F)F)c(-c4ccn(C)n4)c3)c(-c3ccccc3)nc2c1 [Compound 79, N-{7-[(acetylamino)methyl]-2-phenylimidazo[1,2-a]pyridin-3-yl}-3-(1-methyl-1H-pyrazol-3-yl)-4-(trifluoromethyl) benzamide]
7.85 | Cc1ccn(-c2cc(C(=O)Nc3c(-c4ccccc4)nc4cc(C(C)(C)O)ccn34)ccc2C(F)(F)F)n1 [Compound 60, N-[7-(1-hydroxy-1-methylethyl)-2-phenylimidazo[1,2-a]pyridin-3-yl]-3-(3-methyl-1H-pyrazol-1-yl)-4-(trifluoromethyl) benzamide]
8.31 | CC(O)c1ccc2[nH]c(-c3ccccc3)c(NC(=O)c3cc(-c4ncccn4)c(C(F)(F)F)cc3F)c2c1 (single isomer, unassigned) [Compound 95, (R or S)-2-fluoro-N-[5-(1-hydroxyethyl)-2-phenyl-1H-indol-3-yl]-5-pyrimidin-2-yl-4-(trifluoromethyl) benzamide]
8.42 | Cn1ccc(-c2cc(C(=O)Nc3c(-c4ccccc4)nc4ccc(F)cn34)ccc2C(F)(F)F)n1 [Compound 21, N-(6-fluoro-2-phenylimidazo[1,2-a]pyridin-3-yl)-3-(1-methyl-1H-pyrazol-3-yl)-4-(trifluoromethyl) benzamide]
8.29 | CC(O)c1ccn2c(NC(=O)c3ccc(C(F)(F)F)c(-c4ncccn4)c3)c(-c3ccccc3)nc2c1 (single isomer, unassigned) [Compound 67, (R or S)-N-[7-(1-hydroxyethyl)-2-phenylimidazo[1,2-a]pyridin-3-yl]-3-pyrimidin-2-yl-4-(trifluoromethyl) benzamide]
8.85 | CC(O)c1ccn2c(NC(=O)c3cc(-c4cc[nH]n4)c(C(F)(F)F)cc3F)c(-c3ccccc3)nc2c1 (single isomer, unassigned) [Compound 73, (R or S)-2-fluoro-N-[7-(1-hydroxyethyl)-2-phenylimidazo[1,2-a]pyridin-3-yl]-5-(1H-pyrazol-3-yl)-4-(trifluoromethyl) benzamide]
8.92 | Cn1ccc(-c2cc(C(=O)Nc3c(-c4ccccc4)nc4cc(C(C)(C)O)ccn34)c(Cl)cc2C(F)(F)F)n1 [Compound 70, 2-chloro-N-[7-(1-hydroxy-1-methylethyl)-2-phenylimidazo[1,2-a]pyridin-3-yl]-5-(1-methyl-1H-pyrazol-3-yl)-4-(trifluoromethyl) benzamide]
8.48 | Cc1coc(-c2cc(C(=O)Nc3c(-c4ccccc4)nc4ccccn34)ccc2C(F)(F)F)n1 [Compound 14, 3-(4-methyl-1,3-oxazol-2-yl)-N-(2-phenylimidazo[1,2-a]pyridin-3-yl)-4-(trifluoromethyl) benzamide]
8.74 | Cn1ccc(-c2cc(C(=O)Nc3c(-c4ccccc4)nc4ccc(CO)cn34)ccc2C(F)(F)F)n1 [Compound 37, N-[6-(hydroxymethyl)-2-phenylimidazo[1,2-a]pyridin-3-yl]-3-(1-methyl-1H-pyrazol-3-yl)-4-(trifluoromethyl) benzamide]
8.77 | CC(O)c1ccn2nc(-c3ccccc3)c(NC(=O)c3cc(-c4ccn(C)n4)c(C(F)(F)F)cc3F)c2c1 (single isomer, unassigned) [Compound 106, (R or S)-2-fluoro-N-[5-(1-hydroxyethyl)-2-phenylpyrazolo[1,5-a]pyridin-3-yl]-5-(1-methyl-1H-pyrazol-3-yl)-4-(trifluoromethyl) benzamide]
8.10 | CC(C)(O)c1ccn2c(NC(=O)c3ccc(C(F)(F)F)c(-c4ncccn4)c3)c(-c3ccccc3)nc2c1 [Compound 43, N-[7-(1-hydroxy-1-methylethyl)-2-phenylimidazo[1,2-a]pyridin-3-yl]-3-pyrimidin-2-yl-4-(trifluoromethyl) benzamide]
9.14 | Cn1ccc(-c2cc(C(=O)Nc3c(-c4ccccc4)nc4ccccn34)c(Cl)cc2C(F)(F)F)n1 [Compound 20, 2-chloro-5-(1-methyl-1H-pyrazol-3-yl)-N-(2-phenylimidazo[1,2-a]pyridin-3-yl)-4-(trifluoromethyl) benzamide]
7.57 | Cn1ccc(-c2cc(C(=O)Nc3nc4ccccc4nc3-c3ccccc3)ccc2C(F)(F)F)n1 [Compound 31, 3-(1-methyl-1H-pyrazol-3-yl)-N-(3-phenylquinoxalin-2-yl)-4-(trifluoromethyl) benzamide]
8.85 | CC(C)(O)c1ccc2nc(-c3ccccc3)c(NC(=O)c3ccc(C(F)(F)F)c(-c4ncccn4)c3)n2c1 [Compound 44, N-[6-(1-hydroxy-1-methylethyl)-2-phenylimidazo[1,2-a]pyridin-3-yl]-3-pyrimidin-2-yl-4-(trifluoromethyl) benzamide]
8.49 | O=C(Nc1c(-c2ccccc2)nc2ccccn12)c1ccc(C(F)(F)F)c(-c2ccn(C(F)F)n2)c1 [Compound 11, 3-[1-(difluoromethyl)-1H-pyrazol-3-yl]-N-(2-phenylimidazo[1,2-a]pyridin-3-yl)-4-(trifluoromethyl) benzamide]
9.43 | CC(O)c1ccn2c(NC(=O)c3cc(-c4ccn(C)n4)c(C(F)(F)F)cc3F)c(-c3ccccc3)nc2c1 (single isomer, unassigned) [Compound 55, (R or S)-2-fluoro-N-[7-(1-hydroxyethyl)-2-phenylimidazo[1,2-a]pyridin-3-yl]-5-(1-methyl-1H-pyrazol-3-yl)-4-(trifluoromethyl) benzamide]
8.23 | Cn1ccc(-c2cc(C(=O)Nc3c(-c4ccccc4)nc4ncccn34)ccc2C(F)(F)F)n1 [Compound 3, 3-(1-methyl-1H-pyrazol-3-yl)-N-(2-phenylimidazo[1,2-a]pyrimidin-3-yl)-4-(trifluoromethyl) benzamide]
8.40 | CC(O)c1ccn2c(NC(=O)c3ccc(C(F)(F)F)c(-c4ccn(C(F)F)n4)c3)c(-c3ccccc3)nc2c1 (single isomer, unassigned) [Compound 77, (R or S)-3-[1-(difluoromethyl)-1H-pyrazol-3-yl]-N-[7-(1-hydroxyethyl)-2-phenylimidazo[1,2-a]pyridin-3-yl]-4-(trifluoromethyl) benzamide]
8.68 | Cn1ccc(-c2cc(C(=O)Nc3c(-c4ccccc4)nc4cc(CCO)ccn34)ccc2C(F)(F)F)n1 [Compound 99, N-[7-(2-hydroxyethyl)-2-phenylimidazo[1,2-a]pyridin-3-yl]-3-(1-methyl-1H-pyrazol-3-yl)-4-(trifluoromethyl) benzamide]
8.96 | Cn1ccc(-c2cc(C(=O)Nc3c(-c4ccccc4)nc4cc(C(O)C(F)(F)F)ccn34)ccc2C(F)(F)F)n1 (single isomer, unassigned) [Compound 64, (R or S)-3-(1-methyl-1H-pyrazol-3-yl)-N-[2-phenyl-7-(2,2,2-trifluoro-1-hydroxyethyl)imidazo[1,2-a]pyridin-3-yl]-4-(trifluoromethyl) benzamide]
8.62 | Cc1coc(-c2cc(C(=O)Nc3c(-c4ccccc4)nc4cc(C(C)O)ccn34)ccc2C(F)(F)F)n1 (single isomer, unassigned) [Compound 61, (R or S)-N-[7-(1-hydroxyethyl)-2-phenylimidazo[1,2-a]pyridin-3-yl]-3-(4-methyl-1,3-oxazol-2-yl)-4-(trifluoromethyl) benzamide]
9.35 | Cn1ccc(-c2cc(C(=O)Nc3c(-c4ccccc4)nc4cc(C(C)(C)O)ccn34)c(F)cc2C(F)(F)F)n1 [Compound 50, 2-fluoro-N-[7-(1-hydroxy-1-methylethyl)-2-phenylimidazo[1,2-a]pyridin-3-yl]-5-(1-methyl-1H-pyrazol-3-yl)-4-(trifluoromethyl) benzamide]
8.62 | Cn1ccc(-c2cc(C(=O)Nc3c(-c4ccccc4)nc4c(CO)cccn34)ccc2C(F)(F)F)n1 [Compound 38, N-[8-(hydroxymethyl)-2-phenylimidazo[1,2-a]pyridin-3-yl]-3-(1-methyl-1H-pyrazol-3-yl)-4-(trifluoromethyl) benzamide]
8.74 | CC(O)c1ccn2c(NC(=O)c3cc(-c4cc[nH]n4)c(C(F)(F)F)cc3F)c(-c3ccccc3)nc2c1 (single isomer, unassigned) [Compound 74, (R or S)-2-fluoro-N-[7-(1-hydroxyethyl)-2-phenylimidazo[1,2-a]pyridin-3-yl]-5-(1H-pyrazol-3-yl)-4-(trifluoromethyl) benzamide]
6.58 | CC(C)c1cccc2nc(-c3ccccc3)c(NC(=O)c3ccc(C(F)(F)F)cc3F)n12 [Compound 7, 2-fluoro-N-[5-(1-methylethyl)-2-phenylimidazo[1,2-a]pyridin-3-yl]-4-(trifluoromethyl) benzamide]
6.25 | Cc1nc(-c2nc3ccccn3c2NC(=O)c2ccc(C(F)(F)F)c(-c3ccn(C)n3)c2)co1 [Compound 16, N-[2-(2-methyl-1,3-oxazol-4-yl)imidazo[1,2-a]pyridin-3-yl]-3-(1-methyl-1H-pyrazol-3-yl)-4-(trifluoromethyl) benzamide]
7.96 | O=C(Nc1c(-c2ccccc2)nc2c(F)cccn12)c1ccc(C(F)(F)F)c(-c2cc[nH]n2)c1 [Compound 18, N-(8-fluoro-2-phenylimidazo[1,2-a]pyridin-3-yl)-3-(1H-pyrazol-3-yl)-4-(trifluoromethyl) benzamide]
8.35 | Cc1cc(C(F)(F)F)c(-c2ccn(C)n2)cc1C(=O)Nc1c(-c2ccccc2)nc2cc(C(C)(C)O)ccn12 [Compound 75, N-[7-(1-hydroxy-1-methylethyl)-2-phenylimidazo[1,2-a]pyridin-3-yl]-2-methyl-5-(1-methyl-1H-pyrazol-3-yl)-4-(trifluoromethyl) benzamide]
